According to patent US20240262795A1, “PYRAZINE COMPOUNDS AS INHIBITORS OF FLT3” (Biomea Fusion, Inc., priority 2021, published 2024):

Tests used:
[1] = tested on: MOLM-13; assay: Proliferation inhibition, CellTiter-Glo, MOLM-13; format: cell-based, human; conditions: Homo sapiens, 96 h; MOLM-13 cells, IC50 (4 days), CellTiter-Glo; read-out: MOLM-13 IC50
Method in brief: (§1)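 About 10,000 cells per well in RPMI-1640 with 10% FBS. Compounds added 2 h after seeding at eight concentrations in duplicate (0.2% DMSO as 100% proliferation), then incubated ~96 h at 37° C, 5% CO2. ATP measured by CellTiter-Glo luminescence; IC50 from four-parameter logistic fit.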

[2] = molecular target: T1, FLT3-ITD (Homo sapiens, UniProt P36888, DUP595-601); assay: FLT3-ITD Lance Ultra TR-FRET kinase assay; format: biochemical
T1 construct: purchased Signalchem F-12-12CG-10
T1 sequence (P36888 with tags, fused parts or gaps DUP595-601 limits assumed): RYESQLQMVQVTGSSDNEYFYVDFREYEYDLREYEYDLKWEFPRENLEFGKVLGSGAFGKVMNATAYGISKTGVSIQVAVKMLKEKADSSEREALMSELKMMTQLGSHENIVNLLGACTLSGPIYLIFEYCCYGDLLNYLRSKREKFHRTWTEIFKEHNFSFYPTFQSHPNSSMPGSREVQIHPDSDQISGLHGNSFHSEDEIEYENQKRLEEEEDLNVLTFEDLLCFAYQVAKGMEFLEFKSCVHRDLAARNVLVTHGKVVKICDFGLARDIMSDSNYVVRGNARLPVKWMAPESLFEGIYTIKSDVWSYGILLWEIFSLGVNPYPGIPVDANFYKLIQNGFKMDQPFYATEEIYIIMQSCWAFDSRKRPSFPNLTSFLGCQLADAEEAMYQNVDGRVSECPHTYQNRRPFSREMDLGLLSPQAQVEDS
Description: (§2) High throughput 384-well Lance Ultra TR-FRET based kinase assays were established for the WT FLT3 and FLT3-ITD enzymes and employed a ULight-labeled peptide […] and FLT3 proteins labelled with Eu-conjugated antibody […] (WuXi Aptec). The principle of TR-FRET is based on transfer of energy between a donor and acceptor fluorophore that results when the fluorophores are within close proximity (˜100 Å) of each other. Recombinant WT FLT3 (#PR4666C, M.W. 48.6 kDa) was purchased from Invitrogen and FLT3-ITD (FLT3-ITD-W51, #F-12-12CG-10, M.W. 76 kDa) was purchased from Signalchem. Optimal assay conditions for the WT FLT3 enzyme assay were as follows: 0.5 nM FLT3 protein, 50 nM ULight-JAK-1 (Tyr1023) substrate peptide (PerkinElmer #TRF0121), 100 μM ATP, 60 min reaction time. Optimal assay conditions for the FLT3-ITD enzyme assay were as follows: 0.0625 nM FLT3-ITD protein, 50 nM ULight-JAK-1 (Tyr1023) substrate peptide, 50 μM ATP, 90 min reaction time. Briefly, 11 dose 3× serial dilutions were prepared for the test compounds and the reference compound and 100 nanoliters transferred to appropriate wells of 384-well assay plates. Five microliters of 2× enzyme/peptide were added into assay wells, assay plates centrifuged at 1000 rpm for about 30 seconds, sealed with sealing film and incubated for 30 min at 23° C. Assay buffer comprised 50 mM HEPES (pH 7.5), 1 mM EDTA, 0.01% Brij-35, 10 mM MgCl2 and 2 mM DTT. Next 5 μl of a 2× ATP mixture were added into the assay wells and the plates centrifuged at 1000 rpm about 30 seconds, sealed with sealing film and incubated for 23° C. for appropriate duration. Following assay incubation (30 min for WT FLT3 and 60 min for FLT3-ITD) 10 μl 2× Detection Mixture (Eu-W1024 Anti-phosphotyrosine (PT66) 2 nM and EDTA 10 mM) was added to assay wells, assay plates centrifuge at 1000 rpm about 1 minutes, sealed with sealing film and incubated at 23° C. for 60 minutes. Assay plates were read on a Perkin Elmer Envision reader at two wavelengths (665/615) and the ratio of […] calculated.
(§3) Data was expressed as % of inhibition relative to the vehicle control and calculated as follows:
(§4) Results were analyzed by XLFIT5 as % inhibition vs. log [compound concentration] and IC50 values were calculated by non-linear regression using four parameter-logistic equation. Fit=(A+((B−A)/(1+((C/x)^D)))). Res=(y−fit).

[3] = tested on: K-562; assay: Proliferation inhibition, CellTiter-Glo, K-562; format: cell-based, human; conditions: Homo sapiens, K562, 96 h; K-562 cells, IC50 (4 days), CellTiter-Glo; read-out: K-562 IC50
Method in brief: as §1

[4] = molecular target: T2, WT FLT3 (Homo sapiens, UniProt P36888); assay: WT FLT3 Lance Ultra TR-FRET kinase assay; format: biochemical
T2 construct: purchased Invitrogen PR4666C
T2 sequence (P36888 564-993 limits assumed): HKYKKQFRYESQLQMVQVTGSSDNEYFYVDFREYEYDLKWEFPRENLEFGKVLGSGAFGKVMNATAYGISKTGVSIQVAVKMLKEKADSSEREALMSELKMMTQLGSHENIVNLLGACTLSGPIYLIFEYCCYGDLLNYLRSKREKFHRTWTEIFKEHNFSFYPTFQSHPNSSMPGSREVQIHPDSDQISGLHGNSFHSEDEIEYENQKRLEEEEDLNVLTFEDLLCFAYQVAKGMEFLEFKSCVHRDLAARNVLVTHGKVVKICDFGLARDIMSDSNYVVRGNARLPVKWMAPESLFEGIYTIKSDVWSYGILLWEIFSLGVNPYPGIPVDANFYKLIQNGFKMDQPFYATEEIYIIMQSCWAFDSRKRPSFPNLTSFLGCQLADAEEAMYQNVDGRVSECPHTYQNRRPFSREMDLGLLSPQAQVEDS
Description: as §2, §3, §4

[5] = tested on: MV-4-11; assay: Proliferation inhibition, CellTiter-Glo, MV-4-11; format: cell-based, human; conditions: Homo sapiens, MV4-11, 96 h; MV-4:11 cells, IC50 (4 days), CellTiter-Glo; read-out: MV-4:11 IC50
Method in brief: as §1

| SMILES | IC50 [1] [nM] | IC50 [2] [nM] | IC50 [3] [nM] | IC50 [4] [nM] | IC50 [5] [nM] |
| --- | --- | --- | --- | --- | --- |
| CCc1nc(C(N)=O)c(Nc2cccc(CCNC(=O)[C@H](C)N(C)C(=O)C#CCN(C)C)c2)nc1N(C)C [Compound 203, (S)-5-(dimethylamino)-3-((3-(2-(2-(4-(dimethylamino)-N-methylbut-2-ynamido)propanamido)ethyl)phenyl)amino)-6-ethylpyrazine-2-carboxamide] | 1 to 10 | 0.201 to 0.5 | > 500 | 0.501 to 1 | < 1 |
| C=CC(=O)N(C)[C@@H](C)C(=O)NCCc1cccc(Nc2nc(N(C)C)c(CC)nc2C(N)=O)c1 [Compound 213, (S)-5-(dimethylamino)-6-ethyl-3-((3-(2-(2-(N-methylacrylamido)propanamido)ethyl)phenyl)amino)pyrazine-2-carboxamide] | 1 to 10 | 0.101 to 0.2 | > 500 | 0.501 to 1 | < 1 |
| CCc1nc(C(N)=O)c(Nc2cccc(CCNC(=O)[C@H](C)N(C)C(=O)/C=C/CN(C)C)c2)nc1N(C)CC [Compound 221, (S,E)-3-((3-(2-(2-(4-(dimethylamino)-N-methylbut-2-enamido)propanamido)ethyl)phenyl)amino)-6-ethyl-5-(ethyl(methyl)amino)pyrazine-2-carboxamide] | < 1 | 0.101 to 0.2 | > 500 | 0.501 to 1 | < 1 |
| Cc1nc(C(N)=O)c(Nc2cc(F)cc(CCNC(=O)[C@H](C)N(C)C(=O)/C=C/CN(C)C)c2)nc1N(C)C [Compound 239, 5-(dimethylamino)-3-[3-[2-[[(2S)-2-[[(E)-4-(dimethylamino)but-2-enoyl]-methyl-amino]propanoyl]amino]ethyl]-5-fluoro-anilino]-6-methyl-pyrazine-2-carboxamide] | 10 to 100 | 0.101 to 0.2 | > 500 | 0.501 to 1 | 1 to 10 |
| Cc1nc(C(N)=O)c(Nc2cccc(CCNC(=O)CN(C)C(=O)/C=C/CN(C)C)c2)nc1C1CC1 [Compound 241, (E)-5-cyclopropyl-3-((3-(2-(2-(4-(dimethylamino)-N-methylbut-2-enamido)acetamido)ethyl)phenyl)amino)-6-methylpyrazine-2-carboxamide] | 1 to 10 | 0.201 to 0.5 | > 500 | > 1 | 1 to 10 |
| CCN(C)c1nc(Nc2cccc(CCNC(=O)[C@H](C)N(C)C(=O)/C=C/CN(C)C)c2)c(C(N)=O)nc1C [Compound 253, (S,E)-3-((3-(2-(2-(4-(dimethylamino)-N-methylbut-2-enamido)propanamido)ethyl)phenyl)amino)-5-(ethyl(methyl)amino)-6-methylpyrazine-2-carboxamide] | 1 to 10 | 0.201 to 0.5 | > 500 | 0.501 to 1 | < 1 |
| Cc1nc(C(N)=O)c(Nc2cc(F)cc(CCNC(=O)[C@H](C)N(C)C(=O)/C=C/CN(C)C)c2)nc1C1CC1 [Compound 254, (S,E)-5-cyclopropyl-3-((3-(2-(2-(4-(dimethylamino)-N-methylbut-2-enamido)propanamido)ethyl)-5-fluorophenyl)amino)-6-methylpyrazine-2-carboxamide] | 1 to 10 | 0.501 to 1 | > 500 | 0.501 to 1 | < 1 |

Results, then the compound that gave them:

| IC50 [1] [nM] | IC50 [2] [nM] | IC50 [3] [nM] | IC50 [4] [nM] | IC50 [5] [nM] | SMILES |
| --- | --- | --- | --- | --- | --- |
| 1 to 10 | > 1 | > 500 | > 1 | < 1 | CCc1nc(C(N)=O)c(Nc2cccc(CCNC(=O)[C@@H](C)N(C)C(=O)/C=C/CN(C)C)c2)nc1N(C)C(C)C [Compound 302, (R,E)-3-((3-(2-(2-(4-(dimethylamino)-N-methylbut-2-enamido)propanamido)ethyl)phenyl)amino)-6-ethyl-5-(isopropyl (methyl)amino) pyrazine-2-carboxamide] |
| < 1 | 0.201 to 0.5 | > 500 | 0.201 to 0.5 | < 1 | CCc1nc(C(N)=O)c(Nc2cccc(CCNC(=O)[C@H](C)N(C)C(=O)/C=C/CNC)c2)nc1NC(C)C [Compound 303, (S, E)-6-ethyl-5-(isopropylamino)-3-((3-(2-(2-(N-methyl-4-(methylamino)but-2-enamido)propanamido)ethyl)phenyl)amino) pyrazine-2-carboxamide] |
| 1 to 10 | > 1 | > 500 | > 1 | 1 to 10 | Cc1nc(C(N)=O)c(Nc2cccc(CCNC(=O)[C@H](C)N(C)C(=O)/C=C/CN(C)C)c2)nc1C(C)C [Compound 305, (S,E)-3-((3-(2-(2-(4-(dimethylamino)-N-methylbut-2-enamido)propanamido)ethyl)phenyl)amino)-5-isopropyl-6-methylpyrazine-2-carboxamide] |
| 1 to 10 | 0.101 to 0.2 | > 500 | 0.201 to 0.5 | 1 to 10 | C=CC(=O)N(C)CC(=O)NCCc1cccc(Nc2nc(N(C)C(C)C)c(CC)nc2C(N)=O)c1 [Compound 308, 6-ethyl-5-(isopropyl(methyl)amino)-3-((3-(2-(2-(N-methylacrylamido)acetamido)ethyl)phenyl)amino)pyrazine-2-carboxamide] |
| 1 to 10 | 0.501 to 1 | > 500 | > 1 | 1 to 10 | C=CC(=O)N(C)[C@@H](C)C(=O)NCCc1cccc(Nc2nc(N(C)C(C)C)c(CC)nc2C(N)=O)c1 [Compound 315, (S)-6-ethyl-5-(isopropyl(methyl)amino)-3-((3-(2-(2-(N-methylacrylamido)propanamido)ethyl)phenyl)amino)pyrazine-2-carboxamide] |
| 1 to 10 | > 1 | > 500 | 0.501 to 1 | 1 to 10 | CCc1nc(C(N)=O)c(Nc2cccc([C@@H](C)CNC(=O)CN(C)C(=O)/C=C/CN(C)C)c2)nc1C [Compound 321, (R,E)-3-((3-(1-(2-(4-(dimethylamino)-N-methylbut-2-enamido)acetamido)propan-2-yl)phenyl)amino)-6-ethyl-5-methylpyrazine-2-carboxamide] |
